Test results reported in ChEMBL document CHEMBL1132268, “Non-thiol 3-aminomethylbenzamide inhibitors of farnesyl-protein transferase” (Bioorg Med Chem Lett, 1999).
Converted amounts (≈) assume the structure as drawn.

Experiments:
[1] = biological target: Geranylgeranyl transferase type I (Homo sapiens, UniProt P49354+P53609); assay: Inhibition of geranylgeranyl transferase I (GGTase-I); type: protein-complex assay
[2] = biological target: Protein farnesyltransferase (Homo sapiens, UniProt P49354+P49356); assay: Inhibition of [3H]FPP incorporation into recombinant Ha-Ras by bovine brain farnesyltransferase; type: functional, Bos taurus
[3] = test system: Rat1; assay: Inhibition of v-raf (Raf1a1) transformed RAT1 cell colony size and number in soft agar assay; type: functional; conditions: Rattus norvegicus
[4] = test system: NIH3T3; assay: Inhibition of the post-translational prenylation of Ha-Ras protein in cultured NIH3T3 cells in a protein processing assay; type: functional, cell-based; conditions: Mus musculus
[5] = test system: Rat1; assay: Inhibition of v-Ha-ras (Ras2B) transformed RAT1 cell colony size and number in soft agar assay; type: functional; conditions: Rattus norvegicus
[6] = test system: Rat1; assay: Minimal cytotoxic effect (<10%) in RAT1 cell viability assay; type: functional, Rattus norvegicus

Compound | IC50 [1] [µM] | IC50 [2] [µM] | MIC [3] [µM] | MIC [5] [µM] | IC50 [4] [µM] | CTE [6]
CSCC[C@H](NC(=O)c1cccc(CN(Cc2cnc[nH]2)Cc2cnc[nH]2)c1)C(=O)O | 17 | 0.87 | – | – | – | –
COC(=O)[C@H](CCSC)NC(=O)c1cccc(CN(Cc2ccc(C#N)cc2)Cc2cncn2Cc2ccc(C#N)cc2)c1 | – | – | > 10 | ≤ 1 | ~5 | 25 µM
CSCC[C@H](NC(=O)c1cccc(CN(Cc2ccc(C#N)cc2)Cc2cnc[nH]2)c1)C(=O)O | 6.2 | 0.012 | – | – | – | –
COC(=O)[C@H](CCSC)NC(=O)c1cccc(CN(Cc2ccc(C#N)cc2)Cc2c[nH]cn2)c1 | – | – | > 10 | 10 (≈ 4.92 µg/mL) | – | >=50 uM

Second part, led by results:

IC50 [1] [µM] | IC50 [2] [µM] | MIC [3] [µM] | MIC [5] [µM] | Compound | IC50 [4] [µM] | CTE [6]
– | – | > 10 | > 10 | CCCCN(Cc1cccc(C(=O)N[C@@H](CCSC)C(=O)OC)c1)Cc1cncn1Cc1ccc(C#N)cc1 | – | 25 µM
– | – | > 10 | 10 (≈ 4.92 µg/mL) | COC(=O)[C@H](CCSC)NC(=O)c1cccc(CNCc2cncn2Cc2ccc(C#N)cc2)c1 | – | 25 µM
